Results as given in patent US20260183300A1, “PHARMACEUTICAL COMPOSITION AND USE THEREOF” (priority 2022, published 2026).

How the values were obtained:
THG15 cells = assay: Cell viability assay (CCK-8); assay type: cell-based; conditions: Homo sapiens, 72 hours, estimated IC50, read-out: IC50 (half maximal inhibitory concentration), cell viability
Protocol: Patient-derived tumor cell were obtained with the approval of the Ethics Committee of the Beijing Tsinghua Changgung Hospital in compliance with informed consent of the patient and their family. […] Briefly, the tissues were mechanically minced and then digested with 0.1% trypsin (Hyclone) and 10 U/ml DNasel (Roche) at 37° C. for 45 min. The tissues were passed through a 100-μm cell strainer after lysis of red blood cells and several washes. Cells that that passed through the filter were collected and added with EF medium composed of Neurobasal medium, 3 mM L-glutamine, 1×B27 supplement, 0.5×N2 supplement, 2 μg/mL heparin, 20 ng/mL recombinant human EGF (Sigma-Aldrich), 20 ng/mL recombinant human FGF2 (Sigma-Aldrich), and 0.5×antibiotic antimycotic complex. Fresh EF medium was replenished every 3 days during cell culture. Tumor cell spheres were dissociated using NeuroCult Chemical Dissociation kit (StemCell), and cells were passaged.
Panobinostat (LBH589) and Tazemetostat (EPZ-6438) were purchased from Selleck Chemicals and dissolved in 0.1% DMSO before use. About 5,000 THG15 cells were seeded into each well of a 96-well plate and cultured in EF medium for 24 hours prior to drug intervention. […] According to the instructions, cell viability was determined by using a CCK-8 kit (GK10001), and the optical density was measured at 450 nm using a SPARK reader (TECAN). […]

[1] = studies have shown; cited from earlier work

Compound | IC50 (THG15 cells) [µM] | penetration of the blood-brain barrier [1]
Cc1[nH]c2ccccc2c1CCNCc1ccc(/C=C/C(=O)NO)cc1 [panobinostat, Panobinostat] | ~1 | can penetrate the blood-brain barrier
CCN(c1cc(-c2ccc(CN3CCOCC3)cc2)cc(C(=O)NCc2c(C)cc(C)[nH]c2=O)c1C)C1CCOCC1 [tazemetostat, Tazemetostat] | ~50 | 
